# Experimental data reported in BindingDB's records for doi:10.1016/j.bmcl.2012.12.028 (Pfizer, 2013).
# Molecular target: T1, P-selectin (Homo sapiens, UniProt P16109)
# T1 sequence (P16109 whole entry): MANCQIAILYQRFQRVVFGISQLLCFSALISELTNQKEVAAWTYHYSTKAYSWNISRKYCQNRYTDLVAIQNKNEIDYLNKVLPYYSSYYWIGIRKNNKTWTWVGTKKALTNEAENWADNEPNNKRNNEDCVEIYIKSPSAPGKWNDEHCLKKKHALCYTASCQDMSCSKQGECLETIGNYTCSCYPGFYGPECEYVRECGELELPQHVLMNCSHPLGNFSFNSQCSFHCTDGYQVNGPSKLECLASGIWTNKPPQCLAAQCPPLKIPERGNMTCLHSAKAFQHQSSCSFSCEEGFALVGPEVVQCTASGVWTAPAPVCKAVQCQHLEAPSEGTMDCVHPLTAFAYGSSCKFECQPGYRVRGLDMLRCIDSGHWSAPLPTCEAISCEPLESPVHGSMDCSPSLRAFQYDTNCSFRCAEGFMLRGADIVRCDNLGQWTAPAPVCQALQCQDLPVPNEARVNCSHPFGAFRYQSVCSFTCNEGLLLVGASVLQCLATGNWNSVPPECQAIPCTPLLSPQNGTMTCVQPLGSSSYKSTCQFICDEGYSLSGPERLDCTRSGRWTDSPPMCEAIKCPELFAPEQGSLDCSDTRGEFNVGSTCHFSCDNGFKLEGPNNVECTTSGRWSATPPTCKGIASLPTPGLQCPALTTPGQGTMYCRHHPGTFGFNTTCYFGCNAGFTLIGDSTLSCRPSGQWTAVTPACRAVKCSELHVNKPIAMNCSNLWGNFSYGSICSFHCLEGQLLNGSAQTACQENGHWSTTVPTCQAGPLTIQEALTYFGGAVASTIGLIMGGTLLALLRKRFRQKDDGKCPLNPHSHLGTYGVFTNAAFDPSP
# Assay: Inhibition of P-selectin aggregation in platelet surface (unknown origin)
row,Compound,IC50
1,O=C(NCCCN1CCOC1=O)c1cnc(NCc2cc(Cl)ccc2Cl)nc1NC1CCCC1,7400 nM
2,O=C(NCCCN1CCCC1=O)c1cnc(NCc2cc(Cl)ccc2Cl)nc1NC1CCCC1,3100 nM
3,COc1ccccc1CNc1ncc(C(=O)NCCCN2CCCC2=O)c(NC2CCCC2)n1,17000 nM
4,COc1ccccc1CNc1ncc(C(=O)NC2CCN(C)CC2)c(NC2CCCC2)n1,1500 nM
5,CN1CCC(NC(=O)c2cnc(Nc3cc(Cl)cc(Cl)c3)nc2N[C@@H]2COC[C@H]2O)CC1,2200 nM
6,O[C@@H]1COC[C@H]1Nc1nc(Nc2cc(Cl)cc(Cl)c2)ncc1Br,3900 nM
7,O[C@@H]1COC[C@H]1Nc1nc(Nc2cc(Cl)cc(Cl)c2)ncc1-c1ccc(F)cc1,> 80000 nM
8,O[C@@H]1COC[C@H]1Nc1nc(Nc2cc(Cl)cc(Cl)c2)ncc1-c1cccnc1,3000 nM
9,Cc1cc(-c2cnc(Nc3cc(Cl)cc(Cl)c3)nc2NC2CCNCC2)on1,1600 nM
10,CN1CCC(NC(=O)c2cnc(Nc3cc(Cl)cc(Cl)c3)nc2NC2CCOCC2)CC1,1200 nM
11,CN1CCC(NC(=O)c2cnc(NCc3cc(Cl)ccc3Cl)nc2NC2CCNCC2)CC1,> 80000 nM
12,COc1ccccc1CNc1ncc(C(=O)NCCCCN(C)C)c(NC2CCCC2)n1,7100 nM
13,COc1ccccc1CNc1ncc(C(=O)NCCNC(C)=O)c(NC2CCCC2)n1,6600 nM
14,COc1ccccc1CNc1ncc(C(=O)NCCCO)c(NC2CCCC2)n1,10000 nM

# Next, values leading:
row,IC50,Compound
1,1000 nM,Cc1cc(-c2cnc(Nc3cc(Cl)cc(Cl)c3)nc2NC2CCC(N(C)C)CC2)on1 (stereo not given)
2,400 nM,CN1CCC(NC(=O)c2cnc(Nc3cc(Cl)cc(Cl)c3)nc2NC2CCC(N(C)C)CC2)CC1 (stereo not given)
3,1200 nM,CN1CCC(NC(=O)c2cnc(NCc3cc(Cl)ccc3Cl)nc2NC2CCCC2)CC1
4,580 nM,CC[C@@H](CO)Nc1nc(Nc2cc(Cl)cc(Cl)c2)ncc1C(=O)NC1CCN(C)CC1
5,430 nM,CN1CCC(NC(=O)c2cnc(Nc3cc(Cl)cc(Cl)c3)nc2N[C@H]2CCCCNC2=O)CC1
6,1100 nM,CN1CCC(NC(=O)c2cnc(NCc3cc(Cl)ccc3Cl)nc2NC2CCC(N(C)C)CC2)CC1 (stereo not given)
